Measurements reported in patent publication US7297353B2, “Use of anemonin for treating aseptic inflammations” (priority 2000, dated 2007).

Assays:
[1] = tested on: carrageenan-induced paw edema; assay: Acute hind paw edema of rats induced by carrageenan; format: in vivo
Method: The animals were injected subcutaneously with carrageenan (10 μl of 1% solution in saline) into the right paw. Anti-inflammatory properties of external anemonin were studied by applying with various liniment solution of anemonin (0.125, 0.5, 2 mg/ml, 0.5 ml) for 2 h immediately after administration of carrageenan. The rats of control group were treated with the same volume of solvent (25% ethanol). The paw volumes of rats were measured at 0, 2 h, 3 h, 4 h, 5 h, 6 h after injection of carrageenan. The paw edema was represented by subtracting the volume of the untreated same paw from that of the treated paw.

[2] = tested on: injured skin; assay: Effect of anemonin on the injured skin in mice (visual irritation score); format: in vivo, ICR mice; design: Irritation Score: scale not given here
Method: ICR mice were utilized for the studies. The dorsal hair of mice was cut and injured 24 hour before experiment. 25% ethanol (0.5 ml) and the liniment solution of anemonin (0.05, 0.5, 5 mg/ml, 0.5 ml) were coated 4 h a day for 7 days on the area of hairless which was 2×2 cm^2 per mice. The skin irritation was evaluated by visual scoring (Table C-3 and C-4) everyday. The mice were continuously observed for 7 days after stopping applying. […] The injured skin of application 0.5 mg/ml anemonin also healed up within 7 days.

[3] = 0.05 mg/ml on injured skin, Day 1, Treatment
[4] = 0.05 mg/ml on injured skin, Day 2, Treatment
[5] = 0.05 mg/ml on injured skin, Day 3, Treatment
[6] = 0.05 mg/ml on injured skin, Day 4, Treatment
[7] = 0.05 mg/ml on injured skin, Day 5, Treatment
[8] = 0.05 mg/ml on injured skin, Day 6, Treatment
[9] = 0.05 mg/ml on injured skin, Day 7, Treatment
[10] = 0.05 mg/ml on injured skin, Day 8, Observation
[11] = 0.05 mg/ml on injured skin, Day 9, Observation
[12] = 0.05 mg/ml on injured skin, Day 10, Observation
[13] = 0.05 mg/ml on injured skin, Day 11, Observation
[14] = 0.05 mg/ml on injured skin, Day 12, Observation
[15] = 0.05 mg/ml on injured skin, Day 13, Observation
[16] = 0.05 mg/ml on injured skin, Day 14, Observation
[17] = 0.5 mg/ml on injured skin, Day 1, Treatment
[18] = 0.5 mg/ml on injured skin, Day 2, Treatment
[19] = 0.5 mg/ml on injured skin, Day 3, Treatment
[20] = 0.5 mg/ml on injured skin, Day 4, Treatment
[21] = 0.5 mg/ml on injured skin, Day 5, Treatment
[22] = 0.5 mg/ml on injured skin, Day 6, Treatment

O=C1C=CC2(CCC23C=CC(=O)O3)O1 (centres unmarked) [Anemonin, anemonin]
Paw edema ([1]; 0.125 mg/ml liniment, 2 h): 0.24 ± 0.06 mL | Paw edema ([1]; 0.125 mg/ml liniment, 3 h): 0.20 ± 0.09 mL | Paw edema ([1]; 0.125 mg/ml liniment, 4 h): 0.33 ± 0.08 mL | Paw edema ([1]; 0.125 mg/ml liniment, 5 h): 0.36 ± 0.11 mL | Paw edema ([1]; 0.125 mg/ml liniment, 6 h): 0.39 ± 0.08 mL | Paw edema ([1]; 0.5 mg/ml liniment, 2 h): 0.24 ± 0.13 mL | Paw edema ([1]; 0.5 mg/ml liniment, 3 h): 0.21 ± 0.08 mL | Paw edema ([1]; 0.5 mg/ml liniment, 4 h): 0.25 ± 0.07 mL | Paw edema ([1]; 0.5 mg/ml liniment, 5 h): 0.35 ± 0.10 mL | Paw edema ([1]; 0.5 mg/ml liniment, 6 h): 0.40 ± 0.08 mL | Paw edema ([1]; 2 mg/ml liniment, 0.5 ml for 2 h, 2 h after carrageenan): 0.25 ± 0.08 mL | Paw edema ([1]; 2 mg/ml liniment, 3 h): 0.16 ± 0.08 mL | Paw edema ([1]; 2 mg/ml liniment, 4 h): 0.25 ± 0.07 mL | Paw edema ([1]; 2 mg/ml liniment, 5 h): 0.30 ± 0.06 mL | Paw edema ([1]; 2 mg/ml liniment, 6 h): 0.31 ± 0.10 mL | paw edema development ([1]; liniment 0.125, 0.5, 2 mg/ml, dose-dependent manner): significantly reduced | Irritation Grade [2, 3]: No (No irritation <0.5) | Irritation Score [2, 3]: 0 | Irritation Grade [2, 4]: No (No irritation <0.5) | Irritation Score [2, 4]: 0 | Irritation Grade [2, 5]: No (No irritation <0.5) | Irritation Score [2, 5]: 0 | Irritation Grade [2, 6]: No (No irritation <0.5) | Irritation Score [2, 6]: 0 | Irritation Grade [2, 7]: No (No irritation <0.5) | Irritation Score [2, 7]: 0 | Irritation Grade [2, 8]: No (No irritation <0.5) | Irritation Score [2, 8]: 0 | Irritation Grade [2, 9]: No (No irritation <0.5) | Irritation Score [2, 9]: 0 | Irritation Grade [2, 10]: No (No irritation <0.5) | Irritation Score [2, 10]: 0 | Irritation Grade [2, 11]: No (No irritation <0.5) | Irritation Score [2, 11]: 0 | Irritation Grade [2, 12]: No (No irritation <0.5) | Irritation Score [2, 12]: 0 | Irritation Grade [2, 13]: No (No irritation <0.5) | Irritation Score [2, 13]: 0 | Irritation Grade [2, 14]: No (No irritation <0.5) | Irritation Score [2, 14]: 0 | Irritation Grade [2, 15]: No (No irritation <0.5) | Irritation Score [2, 15]: 0 | Irritation Grade [2, 16]: No (No irritation <0.5) | Irritation Score [2, 16]: 0 | Irritation Grade [2, 17]: Mild (Mide irritation <2.09) | Irritation Score [2, 17]: 1 | Irritation Grade [2, 18]: No (No irritation <0.5) | Irritation Score [2, 18]: 0.25 | Irritation Grade [2, 19]: No (No irritation <0.5) | Irritation Score [2, 19]: 0.25 | Irritation Grade [2, 20]: No (No irritation <0.5) | Irritation Score [2, 20]: 0.25 | Irritation Grade [2, 21]: No (No irritation <0.5) | Irritation Score [2, 21]: 0.125 | Irritation Grade [2, 22]: No (No irritation <0.5) | Irritation Score [2, 22]: 0
